Measurements taken from US20250241971A1 (priority 2022, published 2025).

Experiments:
il8 and ifnγ genes = conditions: in vivo
broiler chickens [1] = conditions: in vivo
broiler chickens [2] = conditions: in vivo; remark: listed apart in the source
Poultry = conditions: in vivo; cited from earlier work
Ruminants = conditions: in feed; cited from earlier work

CC1=C[C@H]2O[C@@H]3[C@H](O)C[C@](C)([C@@]2(CO)[C@H](O)C1=O)[C@]31CO1 [DON, Deoxynivalenol]
il8 mRNA expression in jejunum (il8 and ifnγ genes): strong increase | interferon gamma (ifnγ) mRNA expression in jejunum (il8 and ifnγ genes): strong increase | size (height) of intestinal villi of the jejunum (broiler chickens [1]): induces a reduction in the size of the intestinal villi of the jejunum | lesions in the liver (broiler chickens [2]): induces a strong increase in lesions in the liver | macroscopic appearance of the liver (broiler chickens [2]): appears paler, slightly yellower; a hemorrhagic lesion is clearly visible | concentration from which first zootechnical effects are observed (Poultry): ≥ 5 mg of DON per kilogram of feed | number of lesions on the tissue (pig jejunum explants): increases the number of lesions on the tissue | decrease in villus length (pig jejunum explants; pig): approximately 35% | feed concentration up to which little sensitivity appears (Ruminants): up to 12 mg/kg of feed
